Common to all, as to test: DTP human tumour cell line panel, 48 h
The subject of experiment [1] is K-562 leukemia.
The test system of experiment [2] is NCI-H460 lung.
Experiment [3] relates to NCI-H522 lung.
For experiment [4], the system named is NCI-H23 lung.
For experiment [5], the system named is UO-31 renal.
For experiment [6], the system named is MCF7 breast.
Experiment [7] has as its system HS 578T breast.
In experiment [8] the test system is BT-549 breast.
Experiment [9] deals with MALME-3M melanoma.
The test system of experiment [10] is EKVX NSCLC.

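The compound was tested at five concentrations on cells cultured in 96-well plates, with a 48-hour exposure period. GI50: concentration for 50% inhibition of growth. TGI denotes the concentration required for complete inhibition of growth.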 A value given as a limit tells only on which side of the number the result lay.

Regarding `O=C(/C=C/C12c3ccccc3C(c3ccccc31)C1C(=O)NC(=O)C12)c1ccccc1` (stereo not given), the GI50 in experiment [1] is 1.94 µM; in experiment [2], 1.68 µM; in [3], 1.8 µM; in experiment [4] it was 1.79 µM; in experiment [5] it was 1.53 µM; in [6] it was 1.45 µM. For the same molecule, the GI50 is 2.19 µM in experiment [7], 1.4 µM in experiment [8], 1.64 µM in experiment [9] and 1.75 µM in experiment [10]. In addition, the total growth inhibition concentration (TGI) in experiment [1] was more than 100 µM; in experiment [2], 4.65 µM; in [3], 3.69 µM; in [4], 4.01 µM; in [5] it was 2.88 µM; in experiment [6], 7.6 µM. The TGI was found to be 7.68 µM in [7], 2.84 µM in experiment [8], 3.15 µM in experiment [9] and 4.39 µM in experiment [10].
In the case of `C[C@@H]1CC[C@@]2(NC1)O[C@H]1C[C@H]3[C@@H]4CC[C@H]5C[C@@H](O)CC[C@]5(C)[C@H]4CC[C@]3(C)[C@H]1[C@@H]2C`, the TGI in [1], in [2], in experiment [3], in [4], in experiment [5] and in experiment [6] was more than 100 µM each time. Besides, the TGI in experiment [7], in [8], in experiment [9] and in experiment [10] was more than 100 µM throughout.

In general, GI50 refers to the concentration giving 50% growth inhibition. The TGI is the concentration giving total growth inhibition.

The values are drawn from PubChem BioAssay (NCI).
